Test results published in patent publication US6043248A, “Alpha-substituted pyrimidine-thioalkyl and alkylether compounds as inhibitors of viral reverse transcriptase” (priority 1997, dated 2000).
Like-named read-outs stand apart in the source and are kept apart here.

Molecular target: T1, P236L viral reverse transcriptase (Human immunodeficiency virus type 1 group M subtype B, UniProt P04585, P823L)
T1 construct: P236L viral reverse transcriptase is obtained by PNAS 90: 4713-4717 (1993); made in house
Assay: inhibition of viral reverse transcriptase (P236L), cell free assay
Type: biochemical
Conditions: 30 minutes at 37° C.
Excerpt: The utility of the pyrimidine-thioalkyl and alkylether anti-AIDS compounds of Formula IA of this invention can be determined by their ability to inhibit viral reverse transcriptase, an enzyme essential for human immunodeficiency virus replication. This enzyme has characteristics which differentiate it from other known cellular polymerases and it is a unique enzyme which is not found in uninfected cells. Viral reverse transcriptase (Wild Type) is found in extracts from bacterial clones prepared according to the procedure described in AIDS Virus Reverse Transcriptase defined by high level expression in Escherichia coli, EMBO J. 6:3133-3137 (1987). P236L viral reverse transcriptase is obtained by PNAS 90: 4713-4717 (1993). Inhibition of this enzyme is determined in a cell free assay which measures the level of radioactive precursors incorporated into DNA. Extracts prepared according to the procedure of Science, 1125-1129 (1981) are incubated in a mixture of inhibitor, 20 mM dithiothreitol, 60 mM sodium chloride, 0.05% NP-40, 10 mM magnesium chloride, 50 mM Tris pH 8.3, 10 μM [^35 S]-labeled deoxynuleoside-5'-triphosphate, 10 μg/ml RNA template (poly rC or poly rG) and 5 μg/ml DNA primer (oligo dG or oligo dT) for 30 minutes at 37° C. Incorporation of radio-labeled percursor is determined by spotting aliquots of the reaction mixture on DE81 paper, washing the papers to remove unincorporated percursor, drying and determining counts. The results (IC50 means the concentration, in μM of drug, required to inhibit the reverse transcriptase activity (P236L and Wild Type) to the extent of 50%) of various assay(s) are combined and reported as % inhibition and/or IC50 (calculated) in Table I (P236L) and Table II (Wild Type).

[1] = read-out: IC50 (Table I, P236L)

SMILES | IC50 [1] [nM] | IC50 (IC50 (Table I, P236L)) [nM]
Nc1cc(Cl)nc(SCC2=CCc3ccccc32)n1 [Example 155, 4-amino-6-chloro-2-[(1H-inden-3-ylmethyl)thio]pyrimidine] | 5000 | –
Nc1nc(SCc2ccc3ccccc3c2)nc(Cl)c1F [Example 91, 4-amino-5-fluoro-6-chloro-2-(2-naphthylmethylthio)-pyrimidine] | 2500 | –
CC(C)(O)c1ccnc(CSc2nc(N)cc(Cl)n2)c1 [Example 135] | 100 | –
Nc1cc(Cl)nc(SCc2ccc(Cl)s2)n1 [Example 144, 4-Amino-6-chloro-2-[(5-chlorothiophen-2-ylmethyl)thio]pyrimidine] | 5000 | –
Clc1cc(N2CCCCC2)nc(SCc2ccccc2)n1 [Example 84, 4-piperido-6-chloro-2-(benzylthio)-pyrimidine] | 10000 | –
Clc1cc(N2CCOCC2)nc(SCc2ccccc2)n1 [Example 86, 4-morpholino-6-chloro-2-(benzylthio)-pyrimidine] | 40000 | –
Nc1cc(Cl)nc([S+]([O-])Cc2cccc(Br)c2)n1 (stereo not shown) [Example 67, 4-amino-6-chloro-2-(3-bromophenylmethylsulfinyl)pyrimidine] | 25000 | –
Cc1ccc(CSc2nc(N)cc(Cl)n2)cc1 [Example 37, 4-amino-6-chloro-2-(4-methylphenylmethylthio)-pyrimidine] | 330 | –
Nc1cc(Cl)nc(SCc2cccc3ncccc23)n1 [Example 183, 4-Amino-6-chloro-2-[(quinolin-5-ylmethyl)thio]pyrimidine] | 40 | –
Nc1nc(SCc2cc(Cl)ccn2)nc(Cl)c1F [Example 149, 4-amino-6-chloro-5-fluoro-2-[2-(4-chloro)pyridylmethylthio]pyrimidine] | 50 | –
Nc1nc(SCc2ccccn2)nc(Cl)c1F [Example 92, 4-amino-5-fluoro-6-chloro-2-(2-pyridylmethylthio)-pyrimidine] | 1000 | –
Nc1cc(Cl)nc(SCc2cccc(Br)c2)n1 [Example 43, 4-amino-6-chloro-2-(3-bromophenylmethylthio)-pyrimidine] | 140 | –
Nc1cc(Cl)nc(SCc2ccc(-c3ccccc3)cn2)n1 [Example 133, 4-amino-6-chloro-2-[2-(5-phenyl)pyridylmethylthio]-pyrimidine] | – | 1000
Nc1cc(Cl)nc(SCc2cccc3cccnc23)n1 [Example 180, 4-Amino-6-chloro-2-[(quinolin-8-ylmethyl)thio]pyrimidine] | – | 50
Cc1cc(CSc2nc(N)cc(Cl)n2)nc(C)n1 [Example 142, 4-amino-6-chloro-2-[4-(2,6-dimethyl)pyrimidinylmethylthio]-pyrimidine] | 500 | –
CN(C)c1ccnc(CSc2nc(N)cc(Cl)n2)c1 [Example 146, 4-amino-6-chloro-2-[2-(4-dimethylamino)pyridylmethylthio]-pyrimidine] | 10 | –
Nc1cc(Cl)nc(SCc2cccc(F)c2)n1 [Example 41, 4-amino-6-chloro-2-(3-fluorophenylmethylthio)-pyrimidine] | 200 | –
Nc1cc(Cl)nc(SCc2cccc(C(F)(F)F)c2)n1 [Example 38, 4-amino-6-chloro-2-(3-trifluoromethylphenylmethylthio)-pyrimidine] | 1000 | –
CC(C)Oc1ccnc(CSc2nc(N)cc(Cl)n2)c1 [Example 126, 4-amino-6-chloro-2-[2-(4-isopropoxy)pyridylmethylthio]-pyrimidine] | 50 | –
Nc1cc(Cl)nc(SCc2ccc(Cl)cc2Cl)n1 [Example 51, 4-amino-6-chloro-2-(2,4-dichlorophenylmethylthio)-pyrimidine] | 1000 | –
Nc1cc(Cl)nc(SCc2cc(N3CCCC3)ccn2)n1 [Example 143, 4-amino-6-chloro-2-[2-(4-pyrrolidino)pyridylmethylthio]-pyrimidine] | 50 | –
Nc1cc(Cl)nc(SCc2cccc([N+](=O)[O-])c2)n1 [Example 45, 4-amino-6-chloro-2-(3-nitrophenylmethylthio)-pyrimidine] | 110 | –
